The record followed here is patent US20130315920A1, “Cross Protective Epitopes of Aspergillus Fumigatus and Candida Albicans” (Cell Medica Limited, priority 2010, published 2013).

The subject of assay [1] is T-cell lines of 7 donors with different MHC class II alleles. In words: Epitope mapping of Crf1 peptides with IFN-γ ELISPOT. The format is cell-based, human. Particulars: 7 donors tested, peptide-pulsed autologous DC. From the text: (§1) As the identification of potential protective fungal antigens is rather intricate due to the extensiveness of fungal genomes, we analyzed 6 different A. fumigatus recombinant proteins based on their previously reported immunogeneic reactivity in mice and humans^7,10. […] By contrast, GPI-anchored extracellular cell wall glucanase Crf1 and secreted protein peptidase induced high IFN-γ in 6 of 7 and 5 of 10 tested donors, respectively. The response was mediated by CD4^+ TH1 cells, as MHC class II blocking antibody nearly abrogated IFN-γ release (data not shown). Due to the broad response and the sequence similarity to the C. albicans orthologue Crh1, we focused in subsequent experiments on the protein Crf1. By epitope mapping of 7 healthy individuals with different MHC class II alleles, we identified 10 potential candidate epitopes (Table 1). Based on the results obtained by epitope mapping, the probability of antigen presentation by certain MHC class II alleles assessed by epitope prediction^11, previously reported immunogeneic reactivity^12 and sequence similarity to the C. albicans homologue Crh1, we then generated CD4^+ TH1 T-cell clones specific for the peptides p1, p22, p27, p41, p48, p59, p69 and p84 (FIG. 1a and Table 1).
A peptide library covering the complete Crf1 sequence consisting of 94 15-mer peptides overlapping by […] (aa) was divided into sub-pools of 10 peptides and 94 single peptides (p1-p94) (PANATecs). 3 11-mer peptides of p40/41 overlapping by 2aa ([…], […], HTYTIDWTKDA) were obtained from JPT Peptide Technologies.
(§2) For analysis of recombinant proteins and epitope mapping, T-cell lines were generated by incubation of 1×10^7 PBMC per well in 6-well cell culture plates with 5 μg/ml protein or peptide for 7d in the presence of 5 U/ml IL-2 (Proleukin, Chiron). Antigen specificity was analyzed by IFN-γ ELISA^42 after restimulation with autologous monocytes incubated overnight with 5 μg/ml protein in a responder to stimulator (R:S) ratio of 5:1. Epitope mapping was performed by IFN-γ ELISPOT^39 after stimulation with peptide-pulsed autologous DC at a R:S ratio of 10:1.

Assay [2] concerns DC transfected with Crf1 mRNA. The assay can be described thus: Peptide-specific T-cell clones stimulated with Crf1 mRNA-transfected DC (IFN-γ). Particulars: for Response of peptide-specific CD4+ T-cell clones to endogenously processed antigen: all donors. Format: cell-based, human. The method, then:
(§3) T-cell cloning was performed as described in below. T-cell clones were stimulated either with mature peptide-pulsed (2.5 μg/ml) or Crf1 mRNA-transfected DC, immature DC incubated for 24 h with A. fumigatus cell extract (20 μg/ml) in the presence of cytokine maturation cocktail or immature DC incubated for 24 h with inactivated A. fumigatus or C. albicans fungus (multiplicity of infection 3) in a R:S ratio of 5:1.
For T-cell cloning 6×10^7 PBMC were stimulated overnight with 5 μg/ml peptide and 1 μg/ml CD40 antibody (HB14, Miltenyi Biotec). Cells were labelled with anti-CD154^+ microbeads and isolated by magnetic cell separation according to the manufacturers' instructions (Miltenyi Biotec). Selected cells were cultured with γ-irradiated autologous PBMC (ratio 1:50) and cytokines were supplemented as described above. On d14, T-cell clones were generated by limiting dilution in 96-well plates and expanded using the rapid expansion protocol previously described^50.
A. fumigatus Crf1 cDNA was cloned into the pGEM4Z vector (provided by Kris Thielemans) and in vitro transcribed using mMESSAGE mMACHINE T Ultra Kit (Ambion) according to the manufacturers' instructions. Crf1 was fused to the N-terminal domain of the invariant chain to enhance antigen presentation by MHC class II^51,52. Maturated DC were electroporated with 15 μg mRNA at 300V and 150 μF using the EQUIBIO EasyjecT Plus® apparatus (EQUIBIO) in serum-free medium (OptiMEM, Gibco)^41.

Assay [3] has as its system T-cell lines from PBMC of healthy donors. In words: IFN-γ ELISA of T-cell lines stimulated with recombinant A. fumigatus proteins. Particulars: 5 μg/ml protein. The format is cell-based, human.
Source text: as §1
A. fumigatus superoxide dismutase^34, catalase^35, peptidase^36 and 1,3-beta-glucanosyl-transferase Gel1^30 were produced in the yeast Pichia pastoris as described^37. Extracellular cell wall glucanase Crf1^37 (cDNA provided by Utz Reichard) and the major allergen and cytotoxin AspF1^10 were expressed with FLAG-Tags in the human cell line phoenix GALV^38.
as §2

Assay [4] has as its system C. albicans. In words: Peptide-specific T-cell clones stimulated with inactivated C. albicans yeast. The format is cell-based, Candida albicans. Particulars: inactivated C. albicans yeast, established strain.
Source text: A. fumigatus Crf1 p41-specific T-cell clones are cross-reactive to C. albicans and can be activated by different clinical isolates of both fungi. (a) All A. fumigatus Crf1 p41-specific T-cell clones from different donors respond to stimulation with inactivated C. albicans yeast. IFN-γ values are given after subtraction of the negative control. Shown is 1 clone per antigen and donor (representative experiments, n≧3). (b) A. fumigatus Crf1 p41-specific T-cell clones respond to different inactivated clinical isolates of germinating A. fumigatus conidia and C. albicans yeast.
as §3
(§4) Fungal extracts were generated as described^48 and protein content was measured by Bradford protein assay (Perbio Science) according to the manufacturers' instructions. For inactivated fungus Aspergillus conidia were inoculated in growth medium^49 and cultured for 0, 4, 8 or 12 h. Candida species were cultured for 24 h. Fungi were inactivated with 70% ethanol. Ethanol-inactivated fungi and extracts were validated for sterility by subculturing on Sabouraud dextrose agar.

The subject of assay [5] is A. fumigatus cell extract. The assay can be described thus: Peptide-specific T-cell clones stimulated with DC incubated with A. fumigatus cell extract (IFN-γ). Format: cell-based, Aspergillus fumigatus. Particulars: extract 20 μg/ml, DC incubated 24 h. Here is the method: as §3, §4
The test system of assay [6] is A. flavus, A. nidulans, A. niger, A. terreus, C. glabrata and C. krusei. The assay can be described thus: Cross-reactivity of T-cell clones to other Aspergillus and Candida species. The format is cell-based. Conditions: data not shown. An excerpt: We then analyzed if our T-cell clones might cross-react to other clinically relevant Aspergillus and Candida species such as A. flavus, A. nidulans, A. niger, A. terreus, C. glabrata and C. krusei because they also express proteins with some sequence similarity to A. fumigatus Crf1. […] Thus, p41-specific TH1 cells represent a core repertoire in antifungal immune responses being reactive to A. fumigatus but also to C. albicans, the second most important pathogenic fungus in HSCT patients.
Fungal strains A. fumigatus D141, A. nidulans FGSCA4, C. albicans SC5314 and clinical isolates A. fumigatus, A. terreus, A. flavus, A. niger, C. albicans, C. glabrata and C. krusei were provided by Sven Krappmann, Joachim Morschhäuser and Reno Frei.

With “GSSNTGSGSGSGSGS (peptide epitope of A. fumigatus Crf1) [p84, Crf1 aa 333-347]”, the No. of responders in assay [1] is 5. In addition, in assay [2], the “Response of peptide-specific CD4+ T-cell clones to endogenously processed antigen” value (“Response … to endogenously processed antigen” for short) was “None of the CD4^+ T-cell clones specific for the peptides p48, p69 and p84 responded to Crf1 mRNA-transfected DC”. Further, the “Number of T-cell clones reacting to Crf1 mRNA-transfected DC/number of peptide-specific T-cell clones” value (shortened to “Number of T-cell clones reacting”) is 0/4 in assay [2] (donor 4) and 0/5 in assay [2] (donor 11).

Take “SSSSVTSSTTSTASS (peptide epitope of A. fumigatus Crf1) [p69, Crf1 aa 273-287]”: in assay [1], the No. of responders is on record as 3. Further, in assay [2], the “Response … to endogenously processed antigen” value was “None of the CD4^+ T-cell clones specific for the peptides p48, p69 and p84 responded to Crf1 mRNA-transfected DC”. The “Number of T-cell clones reacting” value in assay [2] (donor 1) was 0/3; in assay [2] (donor 4), 0/2.

As for catalase, in assay [3], the “IFN-γ response” value is “only weak interferon-γ (IFN-γ) responses in some donors”.

As for superoxide dismutase, the “IFN-γ response” value in assay [3] is listed as “only weak interferon-γ (IFN-γ) responses in some donors”.

In turn, “AKGGTRFPQTPMRLR (peptide epitope of A. fumigatus Crf1) [p48, Crf1 aa 189-203]” returned a No. of responders in assay [1] of 3. In addition, the “Response … to endogenously processed antigen” value in assay [2] was “None of the CD4^+ T-cell clones specific for the peptides p48, p69 and p84 responded to Crf1 mRNA-transfected DC”. Further, the “Number of T-cell clones reacting” value in assay [2] (donor 3) is listed as 0/7; in assay [2] (donor 4) it was 0/4; in assay [2] (donor 11) it was 0/5.

In the case of “TRFPQTPMRLRLGSW (peptide epitope of A. fumigatus Crf1) [p49, Crf1 aa 193-207]”, the No. of responders in assay [1] is 4.

“YTMYVKSVRIENANP (11-mer peptide of p40/41) [p59, Crf1 aa 233-247]”: the No. of responders in assay [1] is reported as 5. In addition, the “Response … to endogenously processed antigen” value in assay [2] is “only some of the p1-, p22-, p27- and p59-specific CD4^+ T-cells clones responded to endogenously processed antigen”. Further, the entries for the “Number of T-cell clones reacting” value in assay [2] (donor 5), in assay [2] (donor 6) and in assay [2] (donor 12) were 1/3, 2/2 and 1/7, respectively. Further, the “Cross-reactivity of peptide-specific T-cell clones to C. albicans” value in assay [4] was “none of the Crf1 p1-, Cal p27- and Cal p59-specific T-cell clones could be activated”. For the same molecule, in assay [5], the “Response of peptide-specific T-cell clones to A. fumigatus extract” value is “only very few T-cell clones specific for Cal p27 and Crf1 p59”. The “Cross-reactivity to other Aspergillus and Candida species” value in assay [6] was “none of the Crf1 p27-, p41- and p59-specific T-cell clones showed any cross-reactivity to these fungi”.

In the case of “PPNKGLAASTYTADF (peptide epitope of A. fumigatus Crf1) [p9, Crf1 aa 33-47]”, the No. of responders in assay [1] is listed as 3.

For “MYFKYTAAALAAVLP (peptide epitope of A. fumigatus Crf1) [p1, Crf1 aa 1-15]”, the No. of responders in assay [1] worked out at 4. Further, in assay [2], the “Response … to endogenously processed antigen” value is “only some of the p1-, p22-, p27- and p59-specific CD4^+ T-cells clones responded to endogenously processed antigen”. The “Number of T-cell clones reacting” value is 3/3 in assay [2] (donor 5), 1/5 in assay [2] (donor 6), 0/6 in assay [2] (donor 7) and 10/10 in assay [2] (donor 12). Further, in assay [4], the “Cross-reactivity of peptide-specific T-cell clones to C. albicans” value was “none of the Crf1 p1-, Cal p27- and Cal p59-specific T-cell clones could be activated”. In addition, the “Response of peptide-specific T-cell clones to A. fumigatus extract” value in assay [5] is “most Crf1 p1-specific T-cell clones of 2 of 4 donors responded to A. fumigatus extract”. The “Cross-reactivity to other Aspergillus and Candida species” value in assay [6] is “weak cross-reactivity to A. flavus, A. nidulans and A. terreus”.

In the case of “TGSSTSAGASATPEL (peptide epitope of A. fumigatus Crf1) [p89, Crf1 aa 353-367]”, the No. of responders in assay [1] amounted to 4.

For the molecule “SAGPYTMYVKSVRIE (peptide epitope of A. fumigatus Crf1) [p58, Crf1 aa 229-243]”, the No. of responders in assay [1] is on record as 3.

B1: AspF1: recombinant A. fumigatus major allergen and cytotoxin AspF1 (His136Leu) (protein)
chain: ATWTCINQQLNPKTNKWEDKRLLYSQAKAESNSHHAPLSDGKTGSSYPHWFTNGYDGNGKLIKGRTPIKFGKADCDRPPKHSQNGMGKDDHYLLEFPTFPDGHDYKFDSKKPKEDPGPARVIYTYPNKVFCGIVALQRGNQGDLRLCSH
B1: the “IFN-γ response” value in assay [3] was “only weak interferon-γ (IFN-γ) responses in some donors”.
